Where two headings read alike, the source gives them in different places. Starred links: 1 amine or outer side, 2 acyl side, 3 side chain; linkers in the order of their positions; H or OH if unused. Positions of bridges follow the written chain, without caps; N, C: chain ends. Non-standard residues stand in square brackets, D forms with d. Residues, ends and D or L forms follow the SMILES beside them. X1 = CC(C)CCCCCCCCC[C@H](CC(=O)[*:1])O[*:2]
What was measured:
Vibrio harveyi = assay: Antimicrobial test for surfactin (MIC, 96-well broth dilution); assay type: cell-based; conditions: 16 hrs at 37° C., read-out: minimum inhibitory concentration (MIC)
Description: (§1) Escherichia coli DH5α, Vibrio harveyi, Vibrio alginolyticus, Vibrio anguillarum, Vibrio salmonicida, Aeromonas hydrophila and Staphylococcus epidermidis are separately inoculate onto LBA (E. coli DH5α) or TSA (+1.5% NaCl) and incubate at 37° C. for 16 hrs. Scrap off and dissolve the colonies in designated medium. When OD540 is at 1 (the concentration is around 1×10^9 colonies/c.c.), take 500 μl of the bacterial culture and add to 500 μl of LB or TSB (+1.5% NaCl) to make the bacterial concentration at […]; add 130 μl of the bacterial culture to each well of a 96-well plate, the concentration of bacterial culture is 1×10^4.5 colonies/c.c., before addition of 20 μl of chemically synthesized antimicrobial peptides at various concentrations. After 16 hrs of incubation at 37° C., the bacterial culture that is clear indicates the lowest concentration of the antimicrobial peptide, that is, minimum inhibitory concentration (MIC).

Vibrio salmonicida = assay: as above; assay type: cell-based; conditions: 16 hrs at 37° C., read-out: minimum inhibitory concentration (MIC)
Description: as §1

[1] = tested on: Staphylococcus epidermidis; assay: as above; assay type: cell-based; conditions: 16 hrs at 37° C., read-out: minimum inhibitory concentration (MIC)
Description: as §1

Vibrio alginolyticus = assay: as above; assay type: cell-based; conditions: 16 hrs at 37° C., read-out: minimum inhibitory concentration (MIC)
Description: as §1

Escherichia coli DH5α = assay: as above; assay type: cell-based; conditions: 16 h, E. coli, 16 hrs at 37° C., read-out: minimum inhibitory concentration (MIC)
Description: as §1

Aeromonas hydrophila = assay: as above; assay type: cell-based; conditions: 16 hrs at 37° C., read-out: minimum inhibitory concentration (MIC)
Description: as §1

Vibrio anguillarum = assay: as above; assay type: cell-based; conditions: 16 hrs at 37° C., read-out: minimum inhibitory concentration (MIC)
Description: as §1

[2] = Antimicrobial test for surfactin, summary statement over the tested bacteria; assay type: cell-based; conditions: text summary of Table 2, all tested bacteria; read-out: minimum inhibitory concentration (MIC)
Description: as §1

[3] = literature value, test organism not given; cited from earlier work

CC(C)CCCCCCCCC[C@@H]1CC(=O)N[C@@H](CCC(=O)O)C(=O)N[C@@H](CC(C)C)C(=O)N[C@H](CC(C)C)C(=O)N[C@@H](C(C)C)C(=O)N[C@@H](CC(=O)O)C(=O)N[C@H](CC(C)C)C(=O)N[C@@H](CC(C)C)C(=O)O1 [Bacillus subtilis subsp. ATCC21332, surfactin] (EL[dL]VD[dL]L; linker N-C via X1)
129 µM: MIC (Vibrio harveyi; 16 h) | MIC (Vibrio salmonicida; Aliivibrio salmonicida, 16 h) | MIC ([1]; 16 h) | MIC (Vibrio alginolyticus; 16 h) | MIC (Aeromonas hydrophila; Aeromonas hydrophila, 16 h) | MIC (Vibrio anguillarum; Vibrio anguillarum, 16 h)
193 µM: MIC (Escherichia coli DH5α)

CC(C)CCCCCCCCC[C@@H]1CC(=O)N[C@@H](CCC(=O)O)C(=O)N[C@@H](CC(C)C)C(=O)N[C@H](CC(C)C)C(=O)N[C@@H](C(C)C)C(=O)N[C@@H](CC(=O)O)C(=O)N[C@H](CC(C)C)C(=O)N[C@@H](CC(C)C)C(=O)O1 [High-yield mutant strain, surfactin] (EL[dL]VD[dL]L; linker N-C via X1)
96.5 µM: MIC (Vibrio harveyi) | MIC (Vibrio salmonicida) | MIC [1] | MIC (Vibrio alginolyticus) | MIC (Aeromonas hydrophila) | MIC (Vibrio anguillarum) | MIC [2]

CC(C)CCCCCCCCC[C@@H]1CC(=O)N[C@@H](CCC(=O)O)C(=O)N[C@@H](CC(C)C)C(=O)N[C@H](CC(C)C)C(=O)N[C@@H](C(C)C)C(=O)N[C@@H](CC(=O)O)C(=O)N[C@H](CC(C)C)C(=O)N[C@@H](CC(C)C)C(=O)O1 [surfactin] (EL[dL]VD[dL]L; linker N-C via X1)
50 µg/mL: minimum inhibitory concentration (MIC) [3]

Source: patent US9689017B2, “Method of semi-solid state fermentation for producing surfactin from a mutant strain of Bacillus subtilis subsp” (priority 2014, dated 2017)
